Experimental data: US20200360311A1, “USE OF 3-METHYLMETHCATHINONE” (MIND MEDICINE, NC., priority 2017, published 2020)

How the values were obtained:
[1] = Case Study II: 3-MMC couple's therapy; format: in vivo, human; details: heterosexual couple, 6 sessions over 6 months, 150 milligrams each orally plus booster 100 milligrams 1 hour later
Text: Heterosexual couple married for 17 years were caught in a cycle of repetitive conflict over what they both agreed were trivial issues. They described intense, mutual emotional reactivity and angry outbursts which was problematic enough to begin to discuss divorcing. As a last attempt to resolve their conflicts they agreed to participate in once a month 3-MMC couple's therapy. […] In this case the therapy consisted of one therapist who assessed the couple and prepared for the 3-MMC sessions with 2 non-3MMC sessions where the couple was taught a specific communication technique (Non Violent Communication). The space was a normal therapist's office with comfortable furnishings, 3 chairs and an adjoining kitchen. The 3-MMC was given orally which a dosage of 150 milligrams each followed by a booster dosage of 100 milligrams given 1 hour after the first dosage. The couple alternated between periods of listening to relaxing music and conversation, where they explored their own perspectives on how to communicate in relationship both currently and historically. The counsellor would translate some of the couple's statements in the language of non-violent communication and encourage self responsibility. The end of the session occurred 5 hours after the booster dose and a light meal was prepared and served and the couple and therapist ate and debriefed the session. […]

[2] = Case Study III: 3-MMC assisted therapy for relationship distress; format: in vivo, human; details: person, four 3-MMC assisted psychotherapy sessions, 300 milligrams orally
Description: Single professional entered in to 3-MMC assisted therapy to understand why their relationships with men never lasted more than a few months. […] In this case the patient was assessed and prepared by the female therapist in two preliminary sessions where the patients relationship history was explored. The patient was encouraged to consider the connection between their experience of their parent's relationship when they were a child and their reaction to men they dated which was coloured by their past history. The location of the therapy was the living room of the therapist which had been prepared with inspirational art and wall hangings. The sound system consisted of headphones and an ipod with soothing/spiritual music. On the treatment days the patient was given 300 milligrams of 3-MMC orally. The treatment session started by the therapist guiding a meditation exercise and then the patient was encouraged to reflect internally by lying down with eyeshades and listening to the music. In this case the internal experience was 20 minutes after which the patient removed the eyeshades and turned off the music and proceeded to express intense emotions which related to their past anger at their parent. […]

[3] = Case Study IV: 3-MMC-assisted psychotherapy for PTSD and Generalized Anxiety Disorder (GAD); format: in vivo, human; details: person, 200-400 mg twice weekly on two consecutive days for 8 weeks; from week 5 also EMDR with propanolol
Text: A person had been suffering from Post traumatic Stress Disorder (PTSD), depression, and General Anxiety Disorder (GAD).
The symptoms they experienced were panic attacks, hyperventilation, pain in the chest, numbness, and tingling in the extremities, Irritable-Bowel Syndrome (IBS), nightmares, and insomnia.
The PTSD had been caused by a particular life-threatening event, as well as other related incidences that had unfolded in their youth. The psychological ramifications of these events went undiagnosed for many years, although they were eventually treated for anxiety and depression. They refused however, to take the anti-depressants that their physician was willing to prescribe them, and only occasionally would take 5-10 mg Oxazepam for acute panic attacks.
At the time that they started with the 3-MMC-assisted psychotherapy, they had been suffering from an occupational burnout for 4 months already cf. DC-10 Z-73.0.
3-MMC was administered twice weekly on two consecutive days at a dosage of 200-400 mg each time for a period of 8 weeks. Starting at week 5; 3-MMC-assisted psychotherapy took place once a week. Each session lasted 6.5-10 h with an average of 8.5 h per session. […]

[4] = Case Study I: 3-MMC-assisted psychotherapy for post-traumatic stress disorder (PTSD); format: in vivo, human; details: person, three 3-MMC-assisted psychotherapy sessions, 200 milligrams orally
Text: Person suffering from PTSD who was previously incorrectly diagnosed with bipolar disorder, unable to work was under the care of a psychiatrist with no improvement in 4 years. […] In this case, the therapy consisted of both a male and female therapist in a room designed for this therapy (soft lighting, bed, attractive pillows, carefully chosen music, inspirational art—spiritual and nature). The patient was taught relaxation and breathing techniques and briefed in what to expect from the experience. In this case 200 milligrams of 3-MMC was given orally and the patient then lay down on the bed and listened to soothing music for 1.5 hours with eye shades on (internal experience). […] The therapists engaged in psychotherapy for 2 hours after which the patient once again lay down and put on the eyeshades for another 2 hours. Subsequently, the patient re-engaged with the therapists and explored their insights about how they could reframe the traumatic memory to be a positive learning experience.

[5] = Human subject's perception of 3-MMC's effect after oral administration; format: in vivo; details: human subjects
Description: The present inventors have observed that, in some embodiments the onset of human subject's perception of 3-MMC's effect is approximately 30-90 minutes following oral administration, varying according to whether the 3-MMC was administered to a fasting (more rapid onset), or following a meal (less rapid onset). In some cases, the perception of peak effect of 3-MMC in human subjects occurred between 10 to 30 minutes after the initial perception of onset of 3-MMC's effect. The present inventors further observed that the duration of perception of the effect of 3-MMC in human subjects was, in most cases, for no greater than 4 hours following oral administration.

[6] = animal models, cited from earlier work

CNC(C)C(=O)c1cccc(C)c1 (stereo not drawn) [3-MMC, 3-methylmethcathinone]
outcome of couple's therapy [1]: able to take responsibility for their own problematic behaviour and negotiate a more functional relationship
outcome of therapy for relationship distress [2]: understood their previously unconscious behaviour pattern
level of fear associated with traumatic memories [3]: led the level of associated fear to decrease with each subsequent session
clinical outcome of PTSD patient [4]: no longer diagnosable with either PTSD or bipolar and was able to return to gainful employment
onset of subject's perception of effect ([5]; following oral administration, fasting more rapid, following a meal less rapid): 30 to 90 min
duration of perception of the effect ([5]; following oral administration, in most cases): ≤ 4 h
perception of peak effect ([5]; time after the initial perception of onset of effect, in some cases): 10 to 30 min
time at which peak serum concentrations are apparent ([6]; after oral administration): 5 to 10 min
apparent plasma half-life ([6]; after oral ingestion): approximately 0.8 hours
